Entries after “also recorded” stand apart in the source; their conditions may differ. Like-named read-outs stand apart in the source and are kept apart here.
How the values were obtained:
hepatitis C virus (HCV) = conditions: read-out: IC50, replication of hepatitis C virus; cited from earlier work
poliovirus (PV) [1] = tested on: poliovirus (PV)
DENV2 replicon = format: cell-based, dengue virus type 2
PV RdRP (3D^pol) [2] = molecular target: T1, PV RdRP (3D^pol) (Poliovirus type 1, UniProt P03300); format: biochemical
T1 sequence (P03300 1749-2209 limits assumed): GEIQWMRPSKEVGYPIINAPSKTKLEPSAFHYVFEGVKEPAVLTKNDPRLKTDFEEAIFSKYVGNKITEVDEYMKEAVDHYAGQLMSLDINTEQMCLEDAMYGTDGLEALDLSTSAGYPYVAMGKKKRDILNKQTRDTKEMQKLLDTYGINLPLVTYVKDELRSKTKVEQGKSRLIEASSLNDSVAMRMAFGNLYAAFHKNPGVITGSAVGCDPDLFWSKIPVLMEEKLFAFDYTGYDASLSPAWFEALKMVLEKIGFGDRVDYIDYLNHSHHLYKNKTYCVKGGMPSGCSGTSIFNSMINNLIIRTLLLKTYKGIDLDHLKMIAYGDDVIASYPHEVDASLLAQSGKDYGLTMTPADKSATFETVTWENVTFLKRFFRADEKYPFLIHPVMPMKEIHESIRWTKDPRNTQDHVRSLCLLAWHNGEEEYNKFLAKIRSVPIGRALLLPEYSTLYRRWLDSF

PV RdRP (3D^pol) [3] = molecular target: T1, PV RdRP (3D^pol); format: biochemical; remark: listed apart in the source
PV RdRP [4] = molecular target: T2, PV RdRP (Poliovirus type 1, UniProt P03300); format: biochemical
T2 sequence (P03300 1749-2209 limits assumed): as above

PV RdRP [5] = molecular target: T2, PV RdRP; conditions: cited from earlier work
[6] = tested on: dengue virus type 2 (DENV2); conditions: read-out: IC50, dengue virus type 2; cited from earlier work
poliovirus (PV) [7] = assay: in vitro; conditions: human
in vitro = conditions: human

C[C@@]1(O)[C@H](O)[C@@H](CO)O[C@H]1n1ccc2c(N)ncnc21 [7-deaza-2'-C-methyladenosine]
IC50 (hepatitis C virus (HCV)): 108 nM

Cc1ccnc2c1ncn2[C@@H]1O[C@H](CO)[C@@H](O)[C@H]1O [Compound 4, 7-Methyl-3-β-D-ribofuranosyl-3H-imidazo[4,5-b]pyridine]
Activity against PV (poliovirus (PV) [1]): inactive
Cytotoxic effects to HeLa cells after 7 h (HeLa S3 cells): little cytotoxicity
Cytotoxicity (HeLa S3 cells): essentially no cytotoxicity
Inhibition of DENV2 replicon activity (DENV2 replicon): essentially no inhibition

Cc1ncnc2c1ncn2[C@@H]1O[C@H](COP(=O)(O)OP(=O)(O)OP(=O)(O)O)[C@@H](O)[C@H]1O [Compound 8, 6-methyl-9-β-D-ribofuranosylpurine 5'-triphosphate]
Inhibition of PV RdRP (PV RdRP (3D^pol) [2]): neither 8 nor 9 inhibit PV RdRP
kcat compared with natural correct nucleotides (PV RdRP (3D^pol) [2]): increases in kcat
Incorporation efficiency across from uracil (PV RdRP (3D^pol) [3]): comparable to natural ATP
Incorporation opposite adenine and guanine (PV RdRP (3D^pol) [3]): almost no incorporation
RNA chain termination (extension of RNA oligomers to +4) (PV RdRP (3D^pol) [3]): neither of these compounds functions as a RNA chain terminator
Efficiency kpol/Kd,app (PV RdRP [4]): 60000 M⁻¹ s⁻¹
Efficiency relative to natural ATP (PV RdRP [4]): only ten-fold lower than natural ATP
Incorporation opposite C by PV RdRP, rate (PV RdRP [4]): extremely slow
Substrate of PV RdRP (PV RdRP [4]): robust substrates
kpol (PV RdRP [4]): 11 ± 0.3 s⁻¹

COC[C@H]1O[C@@H](n2ccc3c(C)ncnc32)[C@H](O)[C@@H]1O [Compound 7, 4-Methyl-7-(5'-O-methyl-β-D-ribofuranosyl)pyrrolo[2,3-d]pyrimidine]
Antiviral activity in plaque assays of infectivity (poliovirus (PV) [1]): eliminated the antiviral effect
Reduction of biological activity on methylation of the 5'-alcohol of 6 (poliovirus (PV) [1]): over 1000 fold
Cytotoxic effects to HeLa cells after 7 h (HeLa S3 cells): little cytotoxicity
Cytotoxicity (HeLa S3 cells): essentially no cytotoxicity
Inhibition of DENV2 replicon activity (DENV2 replicon): essentially no inhibition

Nc1ncnc2c1ncn2[C@@H]1O[C@H](COP(=O)(O)OP(=O)(O)OP(=O)(O)O)[C@@H](O)[C@H]1O [ATP, adenosine triphosphate]
Efficiency kpol/Kd,app (PV RdRP [5]): 650000 M⁻¹ s⁻¹
kpol (PV RdRP [5]): 87 ± 4 s⁻¹

C#C[C@@]1(O)[C@H](O)[C@@H](CO)O[C@H]1n1ccc2c(N)ncnc21 [NITD008, 7-deaza-2'-C-ethynyladenosine]
IC50 [6]: 640 nM

NC(=O)c1ncn([C@@H]2O[C@H](COP(=O)(O)OP(=O)(O)OP(=O)(O)O)[C@@H](O)[C@H]2O)n1 [RTP, ribavirin triphosphate]
Efficiency kpol/Kd,app (PV RdRP [5]): 30 M⁻¹ s⁻¹
kpol (PV RdRP [5]): 0.014 ± 0.001 s⁻¹
Efficiency relative to 8 or 9 (PV RdRP [4]): approximately three orders magnitude lower

Nc1ncnc2c1ccn2[C@@H]1O[C@H](CO)[C@@H](O)[C@H]1O [Compound 3, tubercidin, reference compound]
Cytotoxic effects to HeLa cells after 7 h (HeLa S3 cells): pronounced effects

Cc1nccc2c1ncn2[C@@H]1O[C@H](CO)[C@@H](O)[C@H]1O [Compound 5, 3-deaza-6-methyl-9-β-D-ribofuranosylpurine]
Activity against PV (poliovirus (PV) [1]): inactive
Antiviral activity in plaque assays of infectivity (poliovirus (PV) [1]): essentially inactive
Cytotoxicity (HeLa S3 cells): essentially no cytotoxicity
Inhibition of DENV2 replicon activity (DENV2 replicon): essentially no inhibition

Cc1ncnc2c1ccn2[C@@H]1O[C@H](CO)[C@@H](O)[C@H]1O [Compound 6, 4-Methyl-7-β-D-ribofuranosylpyrrolo[2,3-d]pyrimidine]
selectivity ratio (poliovirus (PV) [7]): > 100
viability at 100 µM (in vitro): 33%

Cc1ncnc2c1ncn2[C@@H]1O[C@H](CO)[C@@H](O)[C@H]1O [Compound 2, 6-methyl-9-β-D-ribofuranosylpurine, reference compound]
Cytotoxic effects to HeLa cells after 7 h (HeLa S3 cells): pronounced effects
Toxicity relative to 3 (fold less toxic) (HeLa S3 cells; human): ~ 5 fold

Cc1ncnc2c1ccn2[C@@H]1O[C@H](COP(=O)(O)OP(=O)(O)OP(=O)(O)O)[C@@H](O)[C@H]1O [Compound 9, 4-Methyl-7-β-D-ribofuranosylpyrrolo[2,3-d]pyrimidine 5'-triphosphate]
Inhibition of PV RdRP (PV RdRP (3D^pol) [2]): neither 8 nor 9 inhibit PV RdRP
kcat compared with natural correct nucleotides (PV RdRP (3D^pol) [2]): increases in kcat
Incorporation efficiency across from uracil (PV RdRP (3D^pol) [3]): comparable to natural ATP
Incorporation opposite adenine and guanine (PV RdRP (3D^pol) [3]): almost no incorporation
RNA chain termination (extension of RNA oligomers to +4) (PV RdRP (3D^pol) [3]): neither of these compounds functions as a RNA chain terminator
Efficiency kpol/Kd,app (PV RdRP [4]): 50000 M⁻¹ s⁻¹
Efficiency relative to natural ATP (PV RdRP [4]): only ten-fold lower than natural ATP
Incorporation opposite C by PV RdRP, rate (PV RdRP [4]): extremely slow
Substrate of PV RdRP (PV RdRP [4]): robust substrates; also recorded: efficient substrate
kpol (PV RdRP [4]): 6 ± 0.5 s⁻¹

Reference: article PMC2990348 (Journal of medicinal chemistry, 2010)
